Results from paper PMC9916658, “Design and Synthesis of New Quinazolin-4-one Derivatives with Negative mGlu7 Receptor Modulation Activity and Antipsychotic-Like Properties” (International Journal of Molecular Sciences, 2023).

Legend:
human mGlu4 receptor = biological target: T1, human mGlu4 receptor (Homo sapiens, UniProt Q14833); test: mGlu4 receptor selectivity, cAMP accumulation screening at 10 µM; type: cell-based
T1 construct: expressed in transfected cells; host or cells: T-REx 293 (tetracycline-inducible)
Method: The cell lines with the tetracycline-inducible expression of human metabotropic receptors 4, 7, and 8 were described in detail by Chruścicka et al. (mGlu4 receptor NM_000841, mGlu7 receptor NM_000844.2, and mGlu8 receptor NM_000845). Cells were grown under standard cell culture conditions (37 °C, 5% CO2) in DMEM supplemented with 10% tetracycline-free FBS. The expression was induced through the addition of tetracycline to the culture medium at 0.75 μg/mL.
The determination of the intracellular cAMP through homogeneous time-resolved fluorescence (HTRF) was described in detail previously. […] The intracellular concentration of cyclic AMP was measured by means of a cAMP Gi HTRF kit from Cisbio, according to the manufacturer’s instructions. After 1 h of incubation at room temperature, the fluorescence at 620 nm and 665 nm was read (Tecan Infinite M1000). The results were calculated as the 665 nm/620 nm ratio multiplied by 10^4. […] Data were analyzed using GraphPad Prism version 5.04 for Windows (GraphPad Software, San Diego, USA).
Firstly, all compounds were screened at 10 μM using three cell lines expressing the mGlu4/7/8 receptor to evaluate selectivity. […] For compounds that passed the screening procedure, the dose–response curve in the presence of LSP4-2022 in 5 μM was evaluated compared to reference NAM ADX71743. […]

CYP1A2 = biological target: T2, CYP1A2 (Homo sapiens, UniProt P05177); test: CYP inhibition assay, recombinant enzyme, fluorescence; type: in vitro ADME; details: test concentrations 1.1, 3.3 and 10 μM; read-out: Cytochrome P450 1A2 IC50
T2 construct: purchased BD Biosciences
T2 sequence (P05177 1-516): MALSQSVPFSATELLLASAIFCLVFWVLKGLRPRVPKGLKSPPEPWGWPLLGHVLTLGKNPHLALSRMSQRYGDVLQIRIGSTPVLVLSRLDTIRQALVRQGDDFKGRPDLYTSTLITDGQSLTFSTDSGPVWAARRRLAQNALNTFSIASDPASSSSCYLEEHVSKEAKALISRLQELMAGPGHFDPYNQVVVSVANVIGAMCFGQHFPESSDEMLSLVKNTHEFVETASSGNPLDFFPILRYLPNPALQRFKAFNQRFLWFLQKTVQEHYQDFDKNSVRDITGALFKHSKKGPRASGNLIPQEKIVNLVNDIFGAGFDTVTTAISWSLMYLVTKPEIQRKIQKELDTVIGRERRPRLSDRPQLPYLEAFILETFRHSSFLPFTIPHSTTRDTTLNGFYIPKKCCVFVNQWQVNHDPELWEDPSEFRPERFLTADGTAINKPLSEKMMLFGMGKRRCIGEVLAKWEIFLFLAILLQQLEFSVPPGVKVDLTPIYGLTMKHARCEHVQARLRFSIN
Method: (§1) CYP inhibition was performed with the recombinant enzymes CYP1A2, CYP2B6, CYP2C9, CYP2C19, CYP2D6, and CYP3A4 obtained from BD Biosciences. Compounds for CYP inhibition testing were prepared as 10 mM stock solutions in DMSO. Isoform-specific substrates were incubated at 37 °C individually with P450 enzymes (Table 5) and a range of test compound concentrations (1.1, 3.3 and 10 μM) in duplicate. Each isoform was tested separately with one reference compound, a known positive control inhibitor. During preincubation, the 96-well black plates were scanned with a fluorescence plate reader to eliminate false results originating from the autofluorescence of the test compounds. At the end of the incubation, product formation was monitored with fluorescence detection. A decrease in the formation of the metabolite compared to the “no inhibition” control samples was used to calculate the IC50 value.

CYP2C19 = biological target: T3, CYP2C19 (Homo sapiens, UniProt P33261); test: as above; type: in vitro ADME; details: test concentrations 1.1, 3.3 and 10 μM; read-out: Cytochrome P450 2C19 IC50
T3 construct: purchased BD Biosciences
Method: as §1

T3 sequence (P33261 whole entry): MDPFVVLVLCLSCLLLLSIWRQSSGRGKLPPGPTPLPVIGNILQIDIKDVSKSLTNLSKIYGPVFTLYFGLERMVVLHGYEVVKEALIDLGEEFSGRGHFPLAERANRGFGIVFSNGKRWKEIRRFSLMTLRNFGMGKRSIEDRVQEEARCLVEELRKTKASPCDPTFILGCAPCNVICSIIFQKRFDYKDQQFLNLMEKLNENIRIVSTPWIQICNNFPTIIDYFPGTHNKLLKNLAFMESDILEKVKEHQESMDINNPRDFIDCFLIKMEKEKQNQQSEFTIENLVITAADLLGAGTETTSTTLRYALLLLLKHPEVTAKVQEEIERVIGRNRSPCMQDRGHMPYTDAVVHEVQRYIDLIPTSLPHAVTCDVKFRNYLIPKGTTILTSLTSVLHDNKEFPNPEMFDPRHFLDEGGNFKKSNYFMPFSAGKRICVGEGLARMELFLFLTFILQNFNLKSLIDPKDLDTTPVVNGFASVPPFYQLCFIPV
T1 sequence (Q14833 33-912): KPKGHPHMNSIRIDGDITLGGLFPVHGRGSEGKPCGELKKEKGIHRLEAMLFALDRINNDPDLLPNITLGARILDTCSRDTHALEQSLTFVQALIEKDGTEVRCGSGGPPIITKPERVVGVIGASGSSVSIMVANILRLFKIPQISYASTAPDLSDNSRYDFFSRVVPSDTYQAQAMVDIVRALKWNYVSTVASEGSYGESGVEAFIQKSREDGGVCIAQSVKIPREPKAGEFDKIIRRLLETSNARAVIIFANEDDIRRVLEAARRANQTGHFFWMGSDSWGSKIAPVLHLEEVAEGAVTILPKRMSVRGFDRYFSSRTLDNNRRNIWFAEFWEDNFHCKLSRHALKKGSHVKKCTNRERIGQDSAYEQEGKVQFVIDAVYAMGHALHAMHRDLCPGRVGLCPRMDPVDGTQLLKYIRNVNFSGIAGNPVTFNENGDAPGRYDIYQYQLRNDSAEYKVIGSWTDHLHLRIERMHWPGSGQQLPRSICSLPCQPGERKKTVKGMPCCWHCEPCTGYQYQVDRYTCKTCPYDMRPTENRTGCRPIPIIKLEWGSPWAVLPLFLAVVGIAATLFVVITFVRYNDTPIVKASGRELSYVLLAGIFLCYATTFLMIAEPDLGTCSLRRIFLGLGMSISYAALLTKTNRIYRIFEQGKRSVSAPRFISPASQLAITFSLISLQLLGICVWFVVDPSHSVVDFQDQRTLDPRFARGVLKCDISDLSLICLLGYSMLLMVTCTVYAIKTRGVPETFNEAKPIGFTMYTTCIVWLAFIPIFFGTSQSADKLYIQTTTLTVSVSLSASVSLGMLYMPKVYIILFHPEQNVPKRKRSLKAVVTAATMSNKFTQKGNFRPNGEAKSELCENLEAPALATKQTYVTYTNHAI

Row | mGlu4 NAM activity (human mGlu4 receptor; at 10 µM) [%] | IC50 (CYP1A2) [µM] | IC50 (CYP2C19) [µM] | selectivity over mGlu4 (human mGlu4 receptor; group III mGlu receptors) | SMILES
1 | 19.6 | 1.1 to 3.3 | 1.1 to 3.3 |  | Cn1c(-c2ccccc2Cl)nc2ccc(-c3ccccc3)cc2c1=O [ALX-065, 2-(2-chlorophenyl)-3-methyl-6-phenylquinazolin-4(3H)-one]
2 |  | 3.3 to 10 | 3.3 to 10 | selective | COc1cccc(-c2ccc3nc(-c4ccccc4Cl)n(C)c(=O)c3c2)c1OC [ALX-171, 2-(2-chlorophenyl)-6-(2,3-dimethoxyphenyl)-3-methylquinazolin-4(3H)-one]
